# Experimental data published in patent US20180009797A1, “AZA-ARYL 1H-PYRAZOL-1-YL BENZENE SULFONAMIDES” (ChemoCentryx, Inc., priority 2016, published 2018).
# Target: T1, CCR(9) (Homo sapiens, UniProt P51686)
# T1 construct: CCR(9)-expressing cells such as T cell line MOLT-4 cells; host or cells: MOLT-4 T cell line
# T1 sequence (P51686 1-369): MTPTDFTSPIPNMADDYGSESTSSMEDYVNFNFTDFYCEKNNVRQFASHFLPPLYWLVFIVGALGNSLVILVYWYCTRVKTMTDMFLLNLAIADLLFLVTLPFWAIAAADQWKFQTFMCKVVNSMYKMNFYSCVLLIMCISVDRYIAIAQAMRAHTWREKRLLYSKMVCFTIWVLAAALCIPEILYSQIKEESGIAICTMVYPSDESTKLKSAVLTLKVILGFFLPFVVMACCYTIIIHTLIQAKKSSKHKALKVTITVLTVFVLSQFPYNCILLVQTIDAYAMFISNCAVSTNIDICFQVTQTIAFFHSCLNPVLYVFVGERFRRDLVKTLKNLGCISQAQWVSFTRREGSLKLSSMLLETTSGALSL
# Test: serum chemotaxis (serum migration) assay, MOLT-4 cells in human serum, TECK
# Assay type: cell-based
# Settings: read-out: A2
# Procedure: In vitro cell chemotaxis assays can be performed (but are not limited to this format) using the 96-well microchamber (called ChemoTX™). The ChemoTX™ system is well known to those skilled in the art as a type of chemotactic/cell migration instrument. In this assay, CCR(9)-expressing cells (such as MOLT-4) are first incubated with a compound of interest, such as a possible CCR(9) antagonist at increasing concentrations. Typically, fifty thousand cells per well are used, but the amount can range from 10^3-10^6 cells per well. The chemokine ligand (for example, CCR(9) ligand TECK, typically at 50 nM (but can range from 5-100 nM)), is placed at the lower chamber and the migration apparatus is assembled. Twenty microliters of test compound-treated cells are then placed onto the membrane. Migration is allowed to take place at 37° C. for a period of time, typically 2.5 hours for CCR(9). At the end of the incubation, the number of cells that migrated across the membrane into the lower chamber is then quantified. The efficacy of a compound as an inhibitor of chemokine-mediated cell migration can be calculated as an IC50 (the concentration needed to reduce cell migration by 50%) or IC90 (for 90% inhibition).
# MOLT-4 cells were obtained from the American Type Culture Collection (Manassas, Va.) and cultured in RPMI tissue culture medium supplemented with 10% fetal calf serum (FCS) in a humidified 5% CO2 incubator at 37° C. Recombinant human chemokine proteins TECK was obtained from R&D Systems (Minneapolis, Minn.). ChemoTX® chemotaxis microchambers were purchased from Neuro Probe (Gaithersburg, Md.). CyQUANT® cell proliferation kits were purchased from Molecular Probes (Eugene, Oreg.). Calcium indicator dye Fluo-4 AM was purchased from Molecular Devices (Mountain View, Calif.).
# A serum chemotaxis assay was used to determine the efficacy of potential receptor antagonists at blocking the migration mediated through chemokine receptors, such as CCR(9). This assay was performed using the ChemoTX® microchamber system with a 5-μm pore-sized polycarbonate membrane. MOLT-4 cells were collected by centrifugation at 400×g at room temperature, then suspended at 50 million/ml in human serum, containing 50 mM HEPES (final pH of 7.2). The compound being tested or an equivalent volume of its solvent (DMSO) was then added to the cell/serum mixture at a final DMSO concentration of 0.125% (v/v), and this mixture was then incubated together at 37° C. for one hour. Separately, recombinant human TECK was diluted with chemotaxis buffer (HBSS+0.1% BSA), generally spanning a range from 0.1 nM to 500 nM, after which 29 μl of diluted chemokine was placed in the lower wells of the ChemoTX® plate. The 5-μm (pore size) polycarbonate membrane was placed onto the plate, and 20 μL of the cell/compound mixture was transferred onto each well of the membrane. The plates were incubated at 37° C. for 90 minutes, after which the polycarbonate membranes were removed and 5 μl of the DNA-intercalating agent CyQUANT (Invitrogen, Carlsbad, Calif.) was added to the lower wells. The amount of fluorescence, corresponding to the number of migrated cells, was measured using a Spectrafluor Plus plate reader (TECAN, San Jose, Calif.).
# The A2 values were calculated from the following equation, comparing the efficacy of the test compound with that of the DMSO-only control at equi-active chemokine levels:
# Log(A2)=log [drug(M)]−log [(A′/A)−1]
# where A reflects the potency of the agonist in the absence of antagonist and […] reflects the potency of the agonist in the presence of antagonist at a given concentration of drug ([drug(M)]).
row,EC50 [nM],Structure (SMILES)
1,> 2500,Cc1cc(NS(=O)(=O)c2ccc(OCC(C)C)cc2)n(-c2cccc3ncccc23)n1
2,501 to 2500,CC(C)Oc1ccc(S(=O)(=O)Nc2cc(CF)nn2-c2cccc3ncccc23)cc1
3,< 500,CC(C)(C)c1ccc(S(=O)(=O)Nc2cc(C(F)F)nn2-c2cccc3ncccc23)cc1
4,< 500,CC(C)Oc1ccc(S(=O)(=O)Nc2cc(C(F)F)nn2-c2cccc3ncccc23)cc1
5,501 to 2500,Cc1cc(NS(=O)(=O)c2ccc(C(C)(C)C)cc2F)n(-c2cccc3ncccc23)n1
6,< 500,Cc1cc(NS(=O)(=O)c2ccc(C(C)(C)C)cc2)n(-c2cccc3nc(N)ccc23)n1
7,501 to 2500,Cc1cc(NS(=O)(=O)c2ccc(C(C)(C)C)cc2)n(-c2nncc3ccccc23)n1
8,501 to 2500,Cc1cc(NS(=O)(=O)c2ccc(C(C)C)cc2)n(-c2cccc3cnccc23)n1
9,501 to 2500,CC(C)c1ccc(S(=O)(=O)Nc2cc(C(F)(F)F)nn2-c2cccc3ncccc23)cc1
10,501 to 2500,Cc1cc(NS(=O)(=O)c2ccc(C(C)(C)C)cc2)n(-c2nccc3ncccc23)n1
11,> 2500,CC(C)Oc1ccc(S(=O)(=O)Nc2cc(C(F)(F)F)nn2-c2cccc3ncccc23)cc1
12,501 to 2500,Cc1cc(NS(=O)(=O)c2ccc(C(C)(C)C)cc2)n(-c2n[nH]c(=O)c3ccccc23)n1
13,501 to 2500,Cc1cc(NS(=O)(=O)c2ccc(C(C)(C)C)cc2)n(-c2cc(N)nc3ccccc23)n1
14,501 to 2500,Cc1cc(NS(=O)(=O)c2ccc(C(C)(C)C)cc2)n(-c2ccnc3c(F)cccc23)n1
15,< 500,Cc1cc(NS(=O)(=O)c2ccc(C(C)(C)C)c(F)c2)n(-c2cccc3ncccc23)n1
16,> 2500,Cc1cc(NS(=O)(=O)c2ccc(C(C)(C)C)cc2)n(-c2ncc(Cl)c3ccccc23)n1
17,501 to 2500,CC(C)(C)c1ccc(S(=O)(=O)Nc2cc(C(F)F)nn2-c2cccc3ncccc23)cc1F
18,< 500,Cc1cc(NS(=O)(=O)c2ccc(C(C)(C)C)c(F)c2)n(-c2cccc3nc(N)ccc23)n1
19,> 2500,Cc1cc(NS(=O)(=O)c2ccc(C(C)(C)C)cc2)n(-c2cccc3c[n+]([O-])ccc23)n1
20,501 to 2500,Cc1cc(-n2nc(C)cc2NS(=O)(=O)c2ccc(C(C)(C)C)cc2)c2cccnc2c1
21,501 to 2500,Cc1cc(NS(=O)(=O)c2ccc(OC(C)C)c(F)c2)n(-c2cccc3ncccc23)n1

# The next lines start with the molecule.
row,Structure (SMILES),EC50 [nM]
1,CC(C)(C)c1ccc(S(=O)(=O)Nc2cc(C(F)(F)F)nn2-c2cccc3ncccc23)cc1,501 to 2500
2,Cc1cc(NS(=O)(=O)c2ccc(OC(C)C)cc2)n(-c2cccc3ncccc23)n1,501 to 2500
3,Cc1cc(NS(=O)(=O)c2ccc(C(C)(C)C)cc2)n(-c2cccc3cnccc23)n1,501 to 2500
4,Cc1ccc2c(-n3nc(C)cc3NS(=O)(=O)c3ccc(C(C)(C)C)cc3)cccc2n1,< 500
5,Cc1cc(NS(=O)(=O)c2ccc(C(C)C)cc2)n(-c2cccc3ncccc23)n1,501 to 2500
6,Cc1cc(NS(=O)(=O)c2ccc(OC(F)(F)F)cc2)n(-c2cccc3ncccc23)n1,501 to 2500
7,CCC(C)(C)c1ccc(S(=O)(=O)Nc2cc(C)nn2-c2cccc3ncccc23)cc1,501 to 2500
8,CC(C)c1ccc(S(=O)(=O)Nc2cc(C(F)F)nn2-c2cccc3ncccc23)cc1,501 to 2500
9,CC(C)(C)c1ccc(S(=O)(=O)Nc2cc(C#N)nn2-c2cccc3ncccc23)cc1,501 to 2500
10,CC(C)(C)c1ccc(S(=O)(=O)Nc2cc(CF)nn2-c2cccc3ncccc23)cc1,< 500
11,CC(C)(C)c1ccc(S(=O)(=O)Nc2ccnn2-c2cccc3ncccc23)cc1,> 2500
12,Cc1cc(NS(=O)(=O)c2ccc(C(C)(C)C)cc2)n(-c2nccc3ccccc23)n1,501 to 2500
13,COc1ccc(-n2nc(C)cc2NS(=O)(=O)c2ccc(C(C)(C)C)c(F)c2)c2cccnc12,< 500
14,Cc1cc(NS(=O)(=O)c2ccc(OC(C)C)cc2)n(-c2cccc3cnccc23)n1,501 to 2500
15,CC(C)c1ccc(S(=O)(=O)Nc2cc(C(F)(F)F)nn2-c2cccc3cnccc23)cc1,501 to 2500
16,CC(C)Oc1ccc(S(=O)(=O)Nc2cc(C(F)(F)F)nn2-c2cccc3cnccc23)cc1,501 to 2500
17,COCc1cc(NS(=O)(=O)c2ccc(C(C)(C)C)cc2)n(-c2cccc3ncccc23)n1,< 500
18,Cc1cc(NS(=O)(=O)c2ccc(C(C)(C)C)cc2)n(-c2ccc(Cl)c3ncccc23)n1,< 500
19,Cc1cc(NS(=O)(=O)c2ccc(C(C)(C)C)cc2)n(-c2cccc3c(N)nccc23)n1,501 to 2500
20,Cc1cc(NS(=O)(=O)c2ccc(C(C)(C)C)cc2)n(-c2ccnc3ccccc23)n1,501 to 2500
21,Cc1cc(NS(=O)(=O)c2ccc(C(C)(C)C)cc2)n(-c2cncc3ccccc23)n1,501 to 2500

row,Structure (SMILES),EC50 [nM]
1,Cc1cc(NS(=O)(=O)c2ccc(C(C)(C)C)cc2)n(-c2ccc(C)c3ncccc23)n1,501 to 2500
2,COc1cnc(-n2nc(C)cc2NS(=O)(=O)c2ccc(C(C)(C)C)cc2)c2ccccc12,501 to 2500
3,Cc1cc(NS(=O)(=O)c2ccc(C(C)(C)C)cc2)n(-c2cnnc3ccccc23)n1,501 to 2500
4,Cc1cc(NS(=O)(=O)c2ccc(C(C)(C)C)cc2)n(-c2cnc(N)c3ccccc23)n1,501 to 2500
5,Cc1cc(-n2nc(C)cc2NS(=O)(=O)c2ccc(C(C)(C)C)cc2)c2ccccc2n1,501 to 2500
6,Cc1cc(NS(=O)(=O)c2ccc(C(C)(C)C)c(F)c2)n(-c2ccc(N)c3ncccc23)n1,501 to 2500
7,Cc1cc(NS(=O)(=O)c2ccc(C(C)(C)C)cc2)n(-c2ccnc3cc(F)ccc23)n1,501 to 2500
8,CC(C)(C)c1ccc(S(=O)(=O)Nc2cc(CF)nn2-c2cccc3ncccc23)cc1F,< 500
9,Cc1cc(NS(=O)(=O)c2ccc(C(C)(C)C)cc2)n(-c2ccc(F)c3ncccc23)n1,501 to 2500
10,Cc1cc(NS(=O)(=O)c2ccc(C(C)(C)C)cc2)n(-c2cccc3c2ccc[n+]3[O-])n1,501 to 2500
11,Cc1cc(NS(=O)(=O)c2ccc(C(C)(C)C)c(Cl)c2)n(-c2cccc3ncccc23)n1,501 to 2500
12,Cc1cc(NS(=O)(=O)c2cc(F)c(C(C)(C)C)c(F)c2)n(-c2cccc3ncccc23)n1,< 500
13,CCOc1ccc(-n2nc(C)cc2NS(=O)(=O)c2ccc(C(C)(C)C)cc2)c2cccnc12,501 to 2500
14,Cc1cc(NS(=O)(=O)c2ccc(C(C)(C)C)cc2)n(-c2cccc3ncccc23)n1,< 500
15,COc1ccc(-n2nc(C)cc2NS(=O)(=O)c2ccc(C(C)(C)C)cc2)c2cccnc12,< 500
16,Cc1cc(NS(=O)(=O)c2ccc(C(C)(C)C)cc2)n(-c2ccc(Br)c3ncccc23)n1,501 to 2500
17,Cc1cc(NS(=O)(=O)c2ccc(C(C)(C)C)c(F)c2)n(-c2ccc(Br)c3ncccc23)n1,< 500
18,Cc1cc(NS(=O)(=O)c2ccc(C(C)(C)C)cc2)n(-c2ccc(N)c3ncccc23)n1,< 500
19,Cc1cc(NS(=O)(=O)c2ccc(C(C)(C)C)c(F)c2)n(-c2ccc(C#N)c3ncccc23)n1,< 500
20,Cc1cc(NS(=O)(=O)c2ccc(C(C)(C)C)cc2)n(-c2ccc(C#N)c3ncccc23)n1,501 to 2500
